# Laboratory results taken from patent US10017741B2, “Compositions and methods for obtaining enriched mesenchymal stem cell cultures” (StemCell Technologies Inc., priority 2013, dated 2018).
# System: CB-derived cultures (CD45+/CD11b+ macrophages, Sca1+ monocytes)
# Experiment: Flow cytometry of CB-derived expansion cultures
# Assay type: cell-based, mouse
# Description: c. Expansion of Human BM and Mouse BM and CB-Derived Cells Assay • 1. […] Cultures were allowed to grow for 10-14 days until adherent cells achieved 70 to 80% confluence. Mouse cultures were maintained under normal (5% CO2) or hypoxic conditions (5% CO2/5% O2) at 37 C in a cell culture incubator. Human cultures were maintained under 5% CO2 at 37 C in a humidified cell culture incubator. • 3. Adherent cells were passaged by releasing cultures from flask. Cultures were washed with 5 mL PBS and then 5 mL of 0.25% trypsin solution ([…] catalogue #07901) was added and the flasks incubated for 10 min at 37 C. To each flask, 5 mL complete medium was added to stop trypsin activity. • 4. Released cells were collected into a tube and centrifuged at 300×g for 5 minutes. • 5. Cells were resuspended in 2 mL of medium and counted using a hemocytometer. • 6. […] P1 cultures were incubated until they reached 70 to 80% confluence. • 8. Passaged cultures can be used at any time from P0 to P10 as needed for different applications.
# d. Flow Cytometry Analysis • 1. Cultures of BM and CB-derived cells were trypsinized for 10 minutes and an equal volume of complete medium was added to cultures to stop trypsin activity • 2. Cell suspension was filtered through a 40 μm strainer, and cells counted using a hemocytometer • 3. Suspension was spun down at 300×g for 5 minutes. • 4. Supernatant was removed and cell pellet resuspended in FACS buffer (PBS with 2% FBS and 1 mM EDTA) • 5. A total of 1×10^5 cells in 300 μL FACS buffer was used for each flow cytometry analysis tube, including unstained, viability, compensation, and isotype controls. • 6. Cell suspensions were stained with fluorophore-labeled antibodies against CD45, CD11b, and Sca1, CD29, and viability dye. • 7. Cell suspensions were analyzed on a flow cytometer using compensation and isotype control to determine laser voltage and gating. • 8. Samples were gated on viable CD45^+ cells and 10,000 events per sample were collected. Alternatively, cells were gated on viable CD45^− cells and out of this gate the proportion of CD29+/Sca1^+ cells obtained.
# [1] = CB, 1 μM P0-P1 then vehicle P2-P3, analysed at P3, adherent cells
# [2] = CB, 1 μM P0-P1 then vehicle P2-P3, analysed at P3, non-adherent cells
# [3] = CB, P4, DMSO P0-P2 then 1 μM GW2580 P3-P4, or P4 control cultures EasySep-enriched
smiles,measurement,setting,value
"COc1ccc(COc2ccc(Cc3cnc(N)nc3N)cc2OC)cc1 [GW2580, 5-(3-Methoxy-4-((4-methoxybenzyl)oxy)benzyl)pyrimidine-2,4-diamine]",dose-response increase in CD45+/CD11b+/Sca1+ hematopoietic monocytes,"CB, 1 μM",18%
same,number of CD45+/CD11b+/Sca1+ monocytes,"CB, 1 μM (control 7%)",25%
same,number of CD45+ cells,"CB, 1 μM (control 78%)",64%
same,CD45+/CD11b+ mature macrophages,"CB, 1 μM (control 93%)",75%
same,"CD45+/CD11b+/Sca1+ monocytes, of CD45+ cells",[1],2%
same,"CD45+/CD11b+/Sca1− mature macrophages, of CD45+ cells",[1],97%
same,"CD45+/CD11b+/Sca1+ monocytes, of CD45+ cells",[2],< 1%
same,"CD45+/CD11b+/Sca1− mature macrophages, of CD45+ cells",[2],99%
same,"CD11b+/Sca1+ hematopoietic monocytes, of CD45+ cells","CB, 1 μM P0 to P2",28%
same,"CD11b+/Sca1− mature macrophages, of CD45+ cells","CB, 1 μM P0 to P2",62%
same,overall reduction in CD45+ cells,"CB, 1 μM P0 to P2",15%
same,reduction in CD45+/CD11b+/Sca1+ monocyte differentiation into mature macrophage (increase in Sca1+ fraction vs control),"CB, 1 μM P0 to P2",22%
same,"CD11b+/Sca1+ hematopoietic monocytes, of CD45+ cells","CB, 1 μM P0 to P3",20%
same,"CD11b+/Sca1− mature macrophages, of CD45+ cells","CB, 1 μM P0 to P3",76%
same,overall reduction in CD45+ cells,"CB, 1 μM P0 to P3",55%
same,reduction in CD45+/CD11b+/Sca1+ monocyte differentiation into macrophage (increase in Sca1+ cells vs control),"CB, 1 μM P0 to P3",8%
same,reduction in CD45+/CD11b+/Sca1− mature macrophage differentiation,"CB, 1 μM, at P3",12%
same,dose-response increase in CD45+/CD11b+/Sca1+ hematopoietic monocytes,"CB, 5 μM",32%
same,number of CD45+/CD11b+/Sca1+ monocytes,"CB, 5 μM (control 7%)",39%
same,number of CD45+ cells,"CB, 5 μM (control 78%)",36%
same,CD45+/CD11b+ mature macrophages,"CB, 5 μM (control 93%)",60%
same,dose-response increase in CD45+/CD11b+/Sca1+ hematopoietic monocytes,"CB, 10 μM",41%
same,number of CD45+/CD11b+/Sca1+ monocytes,"CB, 10 μM (control 7%)",48%
same,number of CD45+ cells,"CB, 10 μM (control 78%)",30%
same,CD45+/CD11b+ mature macrophages,"CB, 10 μM (control 93%)",50%
same,"CD45+/CD11b+ mature macrophages, of total viable cells","CB, P1, 1 μM",34%
same,reduction in macrophages vs control,"CB, P1, 1 μM",50%
same,"CD11b+/Sca1+ monocytes, of CD45+ cells",[3],about 75%
same,"CD11b+/Sca1− mature macrophages, of CD45+ cells",[3],around 25%
same,"CD45+/CD11b+ mature macrophages, of viable cells","CB-derived cultures, 1 μM up to P2",< 1%
